Assay results taken from US9839642B2, “Beta-tetrazolyl-propionic acids as metallo-beta-lactamase inhibitors” (priority 2014, dated 2017).

Assays:
IMP-1 = IMP-1 (Serratia marcescens, UniProt P52699); assay: Enzyme activity: determination of IC50, fluorescence assay with CCF2-FA substrate; format: biochemical; details: enzyme 2 pM, CCF2-FA 1.25 μM, 2 hours at 25° C.; read-out: IMP1 IC50
In short: (§1)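 Final enzyme levels differed by target: 1 pM NDM-1, 2 pM IMP-1, 30 pM VIM-1. Each was incubated 2 hours at 25° C with test compound and 1.25 μM CCF2-FA, and 460 nm fluorescence (405 nm excitation) was fitted by 4-parameter curve to obtain IC50.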

NDM-1 = NDM-1 (Klebsiella pneumoniae, UniProt C7C422); assay: as above; format: biochemical; details: enzyme 1 pM, CCF2-FA 1.25 μM, 2 hours at 25° C.; read-out: NDM1 IC50
Sequence of NDM-1 (C7C422 29-270, looked up, species assumed): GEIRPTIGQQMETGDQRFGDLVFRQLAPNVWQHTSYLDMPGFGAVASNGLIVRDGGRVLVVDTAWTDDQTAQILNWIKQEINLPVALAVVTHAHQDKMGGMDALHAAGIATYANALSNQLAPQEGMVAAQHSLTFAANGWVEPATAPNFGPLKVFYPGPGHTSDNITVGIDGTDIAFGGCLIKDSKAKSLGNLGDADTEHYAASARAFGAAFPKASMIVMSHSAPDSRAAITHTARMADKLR
In short: as §1

VIM-1 = VIM-1 (Pseudomonas aeruginosa, UniProt A0A0F7KYQ8); assay: as above; format: biochemical; details: enzyme 30 pM, CCF2-FA 1.25 μM, 2 hours at 25° C.; read-out: VIM1 IC50
In short: as §1

[1] = test system: Escherichia coli expressing NDM-1 (CLB30016); assay: Antibiotic potentiation activity: synergistic concentration (MITC95) with imipenem, growth by OD600; format: cell-based; details: 95% inhibition of bacterial growth, strain CLB30016
In short: (§2)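 Colonies from overnight agar plates (35 °C) were suspended in saline and diluted 1:100 into 1.1× CAMHB. Inhibitor (final 200 μM to 0.195 μM) was combined with imipenem at 1 or 4 μg/ml, incubated 22–24 h at 35 °C, and absorbance read; MITC95 is the lowest inhibitor concentration giving 95% growth inhibition.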

[2] = test system: Klebsiella pneumoniae expressing VIM-1 (IHMA599644); assay: as above; format: cell-based; details: 95% inhibition of bacterial growth, strain IHMA599644
In short: as §2

[3] = test system: Serratia marcescens expressing IMP-1 (CL5741); assay: as above; format: cell-based; details: 95% inhibition of bacterial growth, strain CL5741
In short: as §2

Sequence of IMP-1 (P52699 19-246, looked up, species assumed): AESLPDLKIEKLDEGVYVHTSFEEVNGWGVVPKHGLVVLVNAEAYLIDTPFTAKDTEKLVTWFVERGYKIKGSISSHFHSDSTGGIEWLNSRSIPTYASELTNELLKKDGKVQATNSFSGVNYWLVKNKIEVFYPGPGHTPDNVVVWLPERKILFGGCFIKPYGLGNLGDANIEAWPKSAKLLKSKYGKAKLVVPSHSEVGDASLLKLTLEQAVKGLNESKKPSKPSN

## CC(C)[C@H](C(=O)O)[C@H](Cc1ccc(C2CCNC2)nc1)c1nnn[nH]1 (stereo partly drawn) [Example 105, (2S,3S)-2-isopropyl-4-(6-(pyrrolidin-3-yl)pyridin-3-yl)-3-(1H-tetrazol-5-yl)butanoic acid]
IMP-1
  IC50: 14000 nM
NDM-1
  IC50: 170 nM
VIM-1
  IC50: 20 nM
[1]
  NDM1 EC30016 MITC95: 3.1 µM
[2]
  VIM1 KP599644 MITC95: 12.5 µM
[3]
  IMP1 SM5741 MITC95: 50 µM

## O=C(O)[C@@H](C1CCOC1)[C@H](Cc1ccc(C2CCNC2)cc1)c1nnn[nH]1 (stereo partly drawn) [Example 107, (2R,3S)-4-(4-(pyrrolidin-3-yl)phenyl)-2-(tetrahydrofuran-3-yl)-3-(1H-tetrazol-5-yl)butanoic acid]
IMP-1
  IC50: 5900 nM
NDM-1
  IC50: 380 nM
VIM-1
  IC50: 30 nM
[1]
  NDM1 EC30016 MITC95: 9.4 µM
[2]
  VIM1 KP599644 MITC95: 12.5 µM
[3]
  IMP1 SM5741 MITC95: 50 µM

## CC(C)[C@H](C(=O)O)[C@H](Cc1csc(C2CCNC2)n1)c1nnn[nH]1 (stereo partly drawn) [Example 108, (2S,3S)-2-isopropyl-4-(2-(pyrrolidin-3-yl)thiazol-4-yl)-3-(1H-tetrazol-5-yl)butanoic acid]
IMP-1
  IC50: > 20000 nM
NDM-1
  IC50: 2800 nM
VIM-1
  IC50: 750 nM
[1]
  NDM1 EC30016 MITC95: 12.5 µM
[2]
  VIM1 KP599644 MITC95: 37 µM
[3]
  IMP1 SM5741 MITC95: >200 µM

## CC(C)[C@H](C(=O)O)[C@H](Cc1ccc(C2CCNC2)c(F)c1)c1nnn[nH]1 (stereo partly drawn) [Example 109, (2S,3S)-4-(3-fluoro-4-(pyrrolidin-3-yl)phenyl)-2-isopropyl 3-(1H-tetrazol-5-yl)butanoic acid]
IMP-1
  IC50: 450 nM
NDM-1
  IC50: 17 nM
VIM-1
  IC50: 1.2 nM
[1]
  NDM1 EC30016 MITC95: 3.1 µM
[2]
  VIM1 KP599644 MITC95: 4.7 µM
[3]
  IMP1 SM5741 MITC95: 12.5 µM

## Cc1cc(C[C@H](c2nnn[nH]2)[C@@H](C(=O)O)C(C)C)ccc1C1CCNC1 (stereo partly drawn) [Example 110, (2S,3S)-2-isopropyl-4-(3-methyl-4-(pyrrolidin-3-yl)phenyl)-3-(1H-tetrazol-5-yl)butanoic acid]
IMP-1
  IC50: 1400 nM
NDM-1
  IC50: 24 nM
VIM-1
  IC50: 4.4 nM
[1]
  NDM1 EC30016 MITC95: 4.7 µM
[2]
  VIM1 KP599644 MITC95: 6.2 µM
[3]
  IMP1 SM5741 MITC95: 18.8 µM

## CCC[C@H](C(=O)O)[C@H](Cc1ccc(N)cn1)c1nnn[nH]1 [Example 111, (S)-2-((S)-2-(5-aminopyridin-2-yl)-1-(1H-tetrazol-5-yl)ethyl)pentanoic acid]
IMP-1
  IC50: 7700 nM
NDM-1
  IC50: 230 nM
VIM-1
  IC50: 77 nM
[1]
  NDM1 EC30016 MITC95: 0.49 µM
[2]
  VIM1 KP599644 MITC95: 5.5 µM
[3]
  IMP1 SM5741 MITC95: 44 µM

## CC(C)C[C@H](C(=O)O)[C@H](Cc1ccc(N)nc1)c1nnn[nH]1 [Example 112, 2-amino-5-((2S,3S)-3-carboxy-5-methyl-2-(2H-tetrazol-5-yl)hexyl)pyridin-1-ium 2,2,2-trifluoroacetate]
IMP-1
  IC50: 570 nM
NDM-1
  IC50: 110 nM
VIM-1
  IC50: 4.9 nM
[1]
  NDM1 EC30016 MITC95: 0.54 µM
[2]
  VIM1 KP599644 MITC95: 5.5 µM
[3]
  IMP1 SM5741 MITC95: 11 µM

## CC(C)C[C@H](C(=O)O)[C@H](Cc1ccc(N)cn1)c1nnn[nH]1 [Example 113, 5-amino-2-((2S,3S)-3-carboxy-5-methyl-2-(2H-tetrazol-5-yl)hexyl)pyridin-1-ium 2,2,2-trifluoroacetate]
IMP-1
  IC50: 2100 nM
NDM-1
  IC50: 130 nM
VIM-1
  IC50: 79 nM
[1]
  NDM1 EC30016 MITC95: 0.78 µM
[2]
  VIM1 KP599644 MITC95: 9.4 µM
[3]
  IMP1 SM5741 MITC95: 18.8 µM

## CCC[C@H](C(=O)O)[C@H](Cc1ccc(N)nc1)c1nnn[nH]1 [Example 114, (S)-2-((S)-2-(6-aminopyridin-3-yl)-1-(1H-tetrazol-5-yl)ethyl)pentanoic acid]
IMP-1
  IC50: 3700 nM
NDM-1
  IC50: 180 nM
VIM-1
  IC50: 6.2 nM
[1]
  NDM1 EC30016 MITC95: 0.39 µM
[2]
  VIM1 KP599644 MITC95: 2.3 µM
[3]
  IMP1 SM5741 MITC95: 18.8 µM

## CCC[C@H](C(=O)O)[C@H](Cc1cnc(N)s1)c1nnn[nH]1 [Example 115, (2S)-2-[(1S)-2-(2-amino-1,3-thiazol-5-yl)-1-(1H-tetrazol-5-yl)ethyl]pentanoic acid]
IMP-1
  IC50: 1500 nM
NDM-1
  IC50: 170 nM
VIM-1
  IC50: 6.5 nM
[1]
  NDM1 EC30016 MITC95: 0.78 µM
[2]
  VIM1 KP599644 MITC95: 9.4 µM
[3]
  IMP1 SM5741 MITC95: 25 µM

## CC(C)C[C@H](C(=O)O)[C@H](Cc1cnc(N)s1)c1nnn[nH]1 [Example 116, (2S)2-[(1S)-2-(2-amino-1,3-thiazol-5-yl)-1-(1H-tetrazol-5-yl)ethyl]-4-methylpentanoic acid]
IMP-1
  IC50: 290 nM
NDM-1
  IC50: 140 nM
VIM-1
  IC50: 4.4 nM
[1]
  NDM1 EC30016 MITC95: 3.1 µM
[2]
  VIM1 KP599644 MITC95: 18.8 µM
[3]
  IMP1 SM5741 MITC95: 9.4 µM

## CCC[C@H](C(=O)O)[C@H](Cc1cccc(N)n1)c1nnn[nH]1 [Example 117, (2S)-2-[(1S)-2-(6-aminopyridin-2-yl)-1-(1H-tetrazol-5-yl)ethyl]pentanoic acid]
IMP-1
  IC50: > 20000 nM
NDM-1
  IC50: 1300 nM
VIM-1
  IC50: 370 nM
[1]
  NDM1 EC30016 MITC95: 1.6 µM
[2]
  VIM1 KP599644 MITC95: 18.8 µM
[3]
  IMP1 SM5741 MITC95: >200 µM

## CCC[C@H](C(=O)O)[C@H](Cc1ccnc(N)c1)c1nnn[nH]1 [Example 118, (2S)-2-[(1S)-2-(2-aminopyridin-4-yl)-1-(1H-tetrazol-5-yl)ethyl]pentanoic acid]
IMP-1
  IC50: > 20000 nM
NDM-1
  IC50: 1100 nM
VIM-1
  IC50: 10 nM
[1]
  NDM1 EC30016 MITC95: 2.3 µM
[2]
  VIM1 KP599644 MITC95: 6.2 µM
[3]
  IMP1 SM5741 MITC95: 200 µM

## CC(C)C[C@H](C(=O)O)[C@H](Cc1ccc2ncc(N)cc2c1)c1nnn[nH]1 [Example 119, (S)-2-((S)-2-(3-aminoquinolin-6-yl)-1-(1H-tetrazol-5-yl)ethyl)-4-methylpentanoic acid]
IMP-1
  IC50: 52 nM
NDM-1
  IC50: 12 nM
VIM-1
  IC50: 1 nM
[1]
  NDM1 EC30016 MITC95: 9.4 µM
[2]
  VIM1 KP599644 MITC95: 25 µM
[3]
  IMP1 SM5741 MITC95: 3.1 µM

## CC(C)[C@H](C(=O)O)[C@H](Cc1ccc(N)nc1)c1nnn[nH]1 [Example 121, (2S,3S)-4-(6-aminopyridin-3-yl)-2-isopropyl-3-(1H-tetrazol-5-yl)butanoic acid]
IMP-1
  IC50: 6000 nM
NDM-1
  IC50: 120 nM
VIM-1
  IC50: 35 nM
[1]
  NDM1 EC30016 MITC95: 0.21 µM
[2]
  VIM1 KP599644 MITC95: 5.5 µM
[3]
  IMP1 SM5741 MITC95: 37 µM

## Nc1ccc(C[C@H](c2nnn[nH]2)[C@@H](C(=O)O)C2CCCC2)cn1 [Example 122, (2S,3S)-4-(6-aminopyridin-3-yl)-2-cyclopentyl-3-(1H-tetrazol-5-yl)butanoic acid]
IMP-1
  IC50: 620 nM
NDM-1
  IC50: 39 nM
VIM-1
  IC50: 1.4 nM
[1]
  NDM1 EC30016 MITC95: 0.39 µM
[2]
  VIM1 KP599644 MITC95: 6.2 µM
[3]
  IMP1 SM5741 MITC95: 12.5 µM

## CC(C)(C)[C@H](C(=O)O)[C@H](Cc1ccc(N)nc1)c1nnn[nH]1 [Example 123, (2R,3S)-4-(6-aminopyridin-3-yl)-2-(tert-butyl)-3-(1H-tetrazol-5-yl)butanoic acid]
IMP-1
  IC50: > 20000 nM
NDM-1
  IC50: 1100 nM
VIM-1
  IC50: 590 nM
[1]
  NDM1 EC30016 MITC95: 3.1 µM
[2]
  VIM1 KP599644 MITC95: 50 µM
[3]
  IMP1 SM5741 MITC95: >200 µM

## CC(C)[C@H](C(=O)O)[C@H](Cc1ccc(N[C@@H]2CCNC2)nc1)c1nnn[nH]1 [Example 124, (2S,3S)-2-isopropyl-4-(6-((R)-pyrrolidin-3-ylamino)pyridin-3-yl)-3-(1H-tetrazol-5-yl)butanoic acid]
IMP-1
  IC50: 15000 nM
NDM-1
  IC50: 540 nM
VIM-1
  IC50: 59 nM
[1]
  NDM1 EC30016 MITC95: 4.7 µM
[2]
  VIM1 KP599644 MITC95: 50 µM
[3]
  IMP1 SM5741 MITC95: 100 µM

## CC(C)[C@H](C(=O)O)[C@H](Cc1ccc(N)cn1)c1nnn[nH]1 [Example 125, (2S,3S)-4-(5-aminopyridin-2-yl)-2-isopropyl-3-(1H-tetrazol-5-yl)butanoic acid]
IMP-1
  IC50: 12000 nM
NDM-1
  IC50: 170 nM
VIM-1
  IC50: 240 nM
[1]
  NDM1 EC30016 MITC95: 0.39 µM
[2]
  VIM1 KP599644 MITC95: 12.5 µM
[3]
  IMP1 SM5741 MITC95: 75 µM

## CC(C)[C@H](C(=O)O)[C@H](Cc1ccc(N2CCC[C@H]2CO)nc1)c1nnn[nH]1 [Example 126, (2S,3S)-4-(6-((S)-2-(hydroxymethyl)pyrrolidin-1-yl)pyridin-3-yl)-2-isopropyl-3-(1H-tetrazol-5-yl)butanoic acid]
IMP-1
  IC50: 530 nM
NDM-1
  IC50: 63 nM
VIM-1
  IC50: 34 nM
[1]
  NDM1 EC30016 MITC95: 6.2 µM
[2]
  VIM1 KP599644 MITC95: 50 µM
[3]
  IMP1 SM5741 MITC95: 25 µM

## CC(C)[C@H](C(=O)O)[C@H](Cc1ccc(N2CCC[C@@H]2CO)nc1)c1nnn[nH]1 [Example 127, (2S,3S)-4-(6-((R)-2-(hydroxymethyl)pyrrolidin-1-yl)pyridin-3-yl)-2-isopropyl-3-(1H-tetrazol-5-yl)butanoic acid]
IMP-1
  IC50: 10000 nM
NDM-1
  IC50: 320 nM
VIM-1
  IC50: 280 nM
[1]
  NDM1 EC30016 MITC95: 12.5 µM
[2]
  VIM1 KP599644 MITC95: 200 µM
[3]
  IMP1 SM5741 MITC95: 200 µM
